Experimental data from the NIST ThermoML archive (doi:10.1007/s10765-008-0535-5).
± gives the expanded uncertainty stated by the source.

Assay: molar heat capacity at constant volume; wn = mass fraction of the nth substance listed
Conditions: Liquid, Vacuum adiabatic calorimetry, w2 = 0.5111

FC(F)C(F)(F)F [pentafluoroethane] + FCF
Conditions	molar heat capacity at constant volume [J/K/mol]
268.15 K, 3423 kPa	62.96 ± 2
269.15 K, 4259 kPa	64.11 ± 2.1
270.15 K, 5065 kPa	63.82 ± 2.1
270.15 K, 5095 kPa	63.25 ± 2
270.15 K, 5157 kPa	63.82 ± 2.1
271.15 K, 5903 kPa	64.9 ± 2.1
271.15 K, 5931 kPa	64.04 ± 2.1
271.15 K, 5992 kPa	62.96 ± 2
272.15 K, 6740 kPa	64.18 ± 2.1
272.15 K, 6767 kPa	64.61 ± 2.1
272.15 K, 6828 kPa	63.25 ± 2
273.15 K, 7576 kPa	64.54 ± 2.1
273.15 K, 7602 kPa	63.82 ± 2.1
273.15 K, 7662 kPa	64.04 ± 2.1
274.15 K, 8411 kPa	65.12 ± 2.1
274.15 K, 8437 kPa	65.19 ± 2.1
274.15 K, 8496 kPa	63.82 ± 2.1
275.15 K, 9245 kPa	64.9 ± 2.1
275.15 K, 9272 kPa	64.9 ± 2.1
275.15 K, 9328 kPa	63.75 ± 2.1
276.15 K, 10082 kPa	65.77 ± 2.1
276.15 K, 10107 kPa	64.83 ± 2.1
276.15 K, 10161 kPa	64.25 ± 2.1
277.15 K, 10917 kPa	65.84 ± 2.1
277.15 K, 10942 kPa	65.62 ± 2.1
277.15 K, 10993 kPa	65.05 ± 2.1
278.15 K, 11753 kPa	66.05 ± 2.2
278.15 K, 11776 kPa	65.55 ± 2.1
278.15 K, 11824 kPa	64.4 ± 2.1
279.15 K, 12587 kPa	65.69 ± 2.1
279.15 K, 12611 kPa	66.12 ± 2.2
279.15 K, 12657 kPa	65.33 ± 2.1
280.15 K, 13423 kPa	66.92 ± 2.2
280.15 K, 13444 kPa	65.12 ± 2.1
280.15 K, 13488 kPa	64.9 ± 2.1
281.15 K, 14258 kPa	65.69 ± 2.1
281.15 K, 14277 kPa	66.63 ± 2.2
281.15 K, 14319 kPa	65.69 ± 2.1
282.15 K, 15091 kPa	66.92 ± 2.2
282.15 K, 15110 kPa	66.27 ± 2.2
282.15 K, 15148 kPa	65.55 ± 2.1
283.15 K, 15926 kPa	66.63 ± 2.2
283.15 K, 15943 kPa	66.05 ± 2.2
283.15 K, 15978 kPa	64.76 ± 2.1
284.15 K, 16759 kPa	66.56 ± 2.2
284.15 K, 16775 kPa	66.34 ± 2.2
284.15 K, 16808 kPa	66.05 ± 2.2
285.15 K, 17592 kPa	67.2 ± 2.2
285.15 K, 17606 kPa	67.06 ± 2.2
285.15 K, 17637 kPa	65.77 ± 2.2
286.15 K, 18423 kPa	66.77 ± 2.2
286.15 K, 18437 kPa	66.7 ± 2.2
286.15 K, 18467 kPa	66.41 ± 2.2
287.15 K, 19253 kPa	66.2 ± 2.2
287.15 K, 19268 kPa	66.7 ± 2.2
287.15 K, 19297 kPa	65.19 ± 2.1
288.15 K, 20083 kPa	67.35 ± 2.2
288.15 K, 20097 kPa	67.28 ± 2.2
288.15 K, 20124 kPa	66.05 ± 2.2
289.15 K, 20914 kPa	67.35 ± 2.2
289.15 K, 20926 kPa	66.7 ± 2.2
289.15 K, 20951 kPa	66.27 ± 2.2
290.15 K, 21743 kPa	67.49 ± 2.2
290.15 K, 21755 kPa	67.28 ± 2.2
290.15 K, 21778 kPa	66.12 ± 2.2
291.15 K, 22571 kPa	67.28 ± 2.2
291.15 K, 22583 kPa	66.7 ± 2.2
291.15 K, 22607 kPa	66.05 ± 2.2
292.15 K, 23400 kPa	67.35 ± 2.2
292.15 K, 23410 kPa	67.35 ± 2.2
292.15 K, 23433 kPa	66.63 ± 2.2
293.15 K, 24226 kPa	67.13 ± 2.2
293.15 K, 24236 kPa	67.06 ± 2.2
293.15 K, 24257 kPa	66.2 ± 2.2
294.15 K, 25053 kPa	67.42 ± 2.2
294.15 K, 25062 kPa	67.42 ± 2.2
294.15 K, 25082 kPa	67.28 ± 2.2
295.15 K, 25878 kPa	66.84 ± 2.2
295.15 K, 25887 kPa	67.13 ± 2.2
295.15 K, 25903 kPa	65.05 ± 2.1
296.15 K, 5585 kPa	69.44 ± 2.2
296.15 K, 5620 kPa	68.57 ± 2.2
296.15 K, 5667 kPa	65.84 ± 2.2
296.15 K, 26704 kPa	67.92 ± 2.2
296.15 K, 26711 kPa	66.99 ± 2.2
296.15 K, 26725 kPa	66.48 ± 2.2
297.15 K, 6213 kPa	68.72 ± 2.2
297.15 K, 6246 kPa	68.86 ± 2.2
297.15 K, 6292 kPa	68.14 ± 2.2
297.15 K, 27528 kPa	67.28 ± 2.2
297.15 K, 27534 kPa	66.63 ± 2.2
297.15 K, 27546 kPa	66.2 ± 2.2
298.15 K, 6841 kPa	70.08 ± 2.2
298.15 K, 6872 kPa	68.28 ± 2.2
298.15 K, 6917 kPa	67.78 ± 2.2
298.15 K, 28352 kPa	66.99 ± 2.2
298.15 K, 28357 kPa	66.84 ± 2.2
298.15 K, 28366 kPa	65.48 ± 2.1
299.15 K, 7469 kPa	69.08 ± 2.2
299.15 K, 7499 kPa	69.29 ± 2.2
299.15 K, 7541 kPa	67.28 ± 2.2
299.15 K, 29176 kPa	67.56 ± 2.2
299.15 K, 29179 kPa	67.49 ± 2.2
299.15 K, 29186 kPa	66.05 ± 2.1
300.15 K, 8097 kPa	69.15 ± 2.2
300.15 K, 8124 kPa	67.85 ± 2.2
300.15 K, 8166 kPa	68.07 ± 2.2
300.15 K, 29998 kPa	66.56 ± 2.2
300.15 K, 29999 kPa	65.55 ± 2.1
300.15 K, 30003 kPa	66.7 ± 2.2
301.15 K, 8725 kPa	68.57 ± 2.2
301.15 K, 8750 kPa	68.07 ± 2.2
301.15 K, 8791 kPa	67.92 ± 2.2
302.15 K, 9353 kPa	68.14 ± 2.2
302.15 K, 9377 kPa	68.86 ± 2.2
302.15 K, 9417 kPa	66.99 ± 2.2
303.15 K, 9980 kPa	68.57 ± 2.2
303.15 K, 10003 kPa	68.28 ± 2.2
303.15 K, 10042 kPa	67.2 ± 2.2
304.15 K, 10607 kPa	68.72 ± 2.2
304.15 K, 10629 kPa	66.92 ± 2.2
304.15 K, 10667 kPa	67.49 ± 2.2
305.15 K, 11234 kPa	66.92 ± 2.2
305.15 K, 11256 kPa	67.42 ± 2.2
305.15 K, 11292 kPa	66.05 ± 2.2
306.15 K, 11861 kPa	68.14 ± 2.2
306.15 K, 11881 kPa	66.99 ± 2.2
306.15 K, 11917 kPa	66.2 ± 2.2
307.15 K, 12487 kPa	66.77 ± 2.2
307.15 K, 12507 kPa	67.28 ± 2.2
307.15 K, 12541 kPa	66.92 ± 2.2
308.15 K, 13114 kPa	67.06 ± 2.2
308.15 K, 13133 kPa	67.35 ± 2.2
308.15 K, 13165 kPa	65.84 ± 2.2
309.15 K, 13740 kPa	66.92 ± 2.2
309.15 K, 13758 kPa	67.13 ± 2.2
309.15 K, 13790 kPa	66.12 ± 2.2
310.15 K, 14367 kPa	67.13 ± 2.2
310.15 K, 14384 kPa	66.05 ± 2.2
310.15 K, 14414 kPa	65.91 ± 2.2
311.15 K, 14992 kPa	66.48 ± 2.2
311.15 K, 15009 kPa	66.2 ± 2.2
311.15 K, 15038 kPa	65.84 ± 2.1
312.15 K, 15618 kPa	64.9 ± 2.1
312.15 K, 15634 kPa	67.13 ± 2.2
312.15 K, 15662 kPa	65.26 ± 2.1
313.15 K, 16243 kPa	66.7 ± 2.2
313.15 K, 16259 kPa	66.2 ± 2.2
313.15 K, 16286 kPa	65.26 ± 2.1
314.15 K, 16869 kPa	66.2 ± 2.2
314.15 K, 16883 kPa	65.98 ± 2.2
314.15 K, 16910 kPa	65.26 ± 2.1
315.15 K, 17493 kPa	65.77 ± 2.2
315.15 K, 17507 kPa	65.84 ± 2.2
315.15 K, 17534 kPa	64.54 ± 2.1
316.15 K, 18118 kPa	65.77 ± 2.1
316.15 K, 18131 kPa	65.12 ± 2.1
316.15 K, 18158 kPa	64.9 ± 2.1
317.15 K, 18743 kPa	65.48 ± 2.1
317.15 K, 18755 kPa	64.33 ± 2.1
317.15 K, 18781 kPa	64.47 ± 2.1
318.15 K, 19367 kPa	64.97 ± 2.1
318.15 K, 19379 kPa	64.9 ± 2.1
318.15 K, 19404 kPa	64.25 ± 2.1
319.15 K, 19990 kPa	65.05 ± 2.1
319.15 K, 20003 kPa	65.12 ± 2.1
319.15 K, 20027 kPa	64.61 ± 2.1
320.15 K, 20613 kPa	63.75 ± 2.1
320.15 K, 20627 kPa	65.77 ± 2.1
320.15 K, 20649 kPa	64.33 ± 2.1
321.15 K, 21236 kPa	64.69 ± 2.1
321.15 K, 21250 kPa	64.69 ± 2.1
321.15 K, 21272 kPa	63.61 ± 2.1
322.15 K, 21858 kPa	64.69 ± 2.1
322.15 K, 21873 kPa	63.9 ± 2.1
322.15 K, 21894 kPa	64.04 ± 2.1
323.15 K, 22480 kPa	63.9 ± 2.1
323.15 K, 22495 kPa	63.9 ± 2.1
323.15 K, 22516 kPa	63.61 ± 2
324.15 K, 23103 kPa	64.33 ± 2.1
324.15 K, 23117 kPa	64.97 ± 2.1
324.15 K, 23137 kPa	62.6 ± 2.1
325.15 K, 23725 kPa	64.25 ± 2.1
325.15 K, 23738 kPa	63.39 ± 2
325.15 K, 23758 kPa	63.1 ± 2
326.15 K, 24347 kPa	64.33 ± 2.1
326.15 K, 24361 kPa	64.9 ± 2.1
326.15 K, 24379 kPa	62.74 ± 2.1
327.15 K, 24970 kPa	63.75 ± 2
327.15 K, 24981 kPa	63.1 ± 2
327.15 K, 25000 kPa	63.68 ± 2
328.15 K, 25590 kPa	62.96 ± 2
328.15 K, 25601 kPa	63.1 ± 2
328.15 K, 25620 kPa	62.17 ± 2
